Data reported in patent publication US11172681B2 (priority 2017, dated 2021).

Tests used:
[1] = Physicochemical stability test (thermal storage of technical material in ovens for 2 months); conditions: for Stability at different temperatures: 25-70° C.; for Purity after thermal storage: HPLC
Experimental: Thereafter, technical materials of the two crystalline forms were placed into ovens with temperatures of 25° C., 40° C., 55° C. and 70° C. respectively and left there for 2 months for thermal storage test.

[2] = Synergistic effect with other herbicides

Row | Stability at different temperatures [1] | Crystalline form after thermal storage ([1]; 25° C.) | Purity after thermal storage ([1]; 25° C.) | Crystalline form after thermal storage ([1]; 40° C.) | Purity after thermal storage ([1]; 40° C.) | Crystalline form after thermal storage ([1]; 55° C.) | Purity after thermal storage ([1]; 55° C.) | Crystalline form after thermal storage ([1]; 70° C.) | Purity after thermal storage ([1]; 70° C.) | Structure (SMILES) | Synergistic effect with one or more listed herbicides [2]
1 | good stability | Crystalline form A | 96.0% | Crystalline form A | 95.5% | Crystalline form A | 95.1% | Crystalline form A | 94.2% | Cc1nn(C)cc1C(=O)Oc1c(C(=O)c2ccc(C(F)(F)F)cc2S(C)(=O)=O)c(C)nn1C [Crystalline form A of shuangzuocaotong, 1,3-Dimethyl-1H-pyrazole-4-carboxylic acid 4-[2-methanesulfonyl-4-trifluoromethyl-benzoyl]-1,3-dimethyl-1H-pyrazol-5-yl ester] | –
2 | good stability | Crystalline form C | 96.0% | Crystalline form C | 95.8% | Crystalline form C | 95.7% | Crystalline form C | 95.2% | Cc1nn(C)cc1C(=O)Oc1c(C(=O)c2ccc(C(F)(F)F)cc2S(C)(=O)=O)c(C)nn1C [Crystalline form C of shuangzuocaotong, 1,3-Dimethyl-1H-pyrazole-4-carboxylic acid 4-[2-methanesulfonyl-4-trifluoromethyl-benzoyl]-1,3-dimethyl-1H-pyrazol-5-yl ester] | obvious synergistic effect
